Source: patent publication US20160317418A1, “METHOD OF IMPROVING THE APPEARANCE OF SKIN AND COMPOSITIONS THEREFOR” (The Procter & Gamble Company, priority 2015, published 2016)
Entries after “also recorded” stand apart in the source; their conditions may differ.

How the values were obtained:
[1] = test system: human neonatal keratinocytes; experiment: Melanosome Uptake Assay (CFDA-labeled melanosomes, flow cytometry); assay type: cell-based; conditions: for % Uptake: 0.0025 w/v % in keratinocyte medium, fraction of keratinocytes with detectable CFDA, vehicle control 36; for Rate of Melanosome Uptake Versus Control: 0.0025 w/v %, vehicle control = 100%
Experimental: Melanosome uptake was determined as follows. Carboxyfluorescein diacetate (“CFDA”) (available from Sigma, St. Louis, Mo.) labeled melanosomes were prepared by incubating CFDA dye in SKMEL-188 culture cells (available from Sloan Kettering Institute) for 2 days at 37° C. in a THERMO SCIENTIFIC FORMA brand CO2 incubator (available from Fisher Scientific, Waltham, Mass.). On day 3 of the test, melanosomes were isolated from SKMEL-188 cells by step density centrifugation with sucrose solutions layered with different densities, which is well known in the art. Melanosomes were taken from the 1.6 M-2.0 M sucrose layers. The isolated melanosomes were placed in each well of a 6-well plate along with human neonatal keratinocytes (available from Thermo) (approximately 50,000 keratinocytes/well). 2 ml of the appropriate medium (i.e., the test composition, the positive control or the vehicle control) was added to each of the wells to produce […] (i.e., 3 replicates of each of three composition tested). The test composition was made by adding nicotinamide riboside chloride powder (available from Chromadex, Irvine, Calif.) to EPILIFE brand keratinocyte medium to produce a solution of 0.0025 w/v % nicotinamide riboside. The positive control was made by adding niacinamide to EPILIFE brand keratinocyte medium to produce a solution of 0.0025 w/v % niacinamide. Unmodified keratinocyte medium was used as a vehicle control.
The resulting test plates were incubated for two days in EPILIFE brand keratinocyte medium. On day 6 of the test, the keratinocytes were detached from the plates using trypsin and fluorescent-label counted by flow cytometry using an LSRFortessa brand flow cytometer (available from Becton Dickinson, NJ). The percentage of cells that had fluorescence (from CFDA label) was used as a metric to determine melanosome uptake. Keratinocytes containing detectable levels of CFDA were counted as a fraction of all keratinocytes passing through the flow cytometer (indicated as % uptake in Table 2). A higher percentage corresponds to a higher level of melanosome uptake into the keratinocytes.

[2] = test system: HMGB1 protein released from keratinocytes; experiment: In Vitro UV Stress Test: HMGB1 released from UVB-exposed keratinocytes (ELISA); assay type: cell-based, human; conditions: for HMGB1 Released: 0.001 w/v % after 15 mJ/cm^2 UVB, 24 hours, UV untreated 19.4, no UV 10.5; for effect on amount of HMGB1 protein released by keratinocytes exposed to UVB (in words): compared to the untreated UVB exposed cells
Experimental: This example compares the ability of nicotinamide riboside and niacinamide to reduce the amount of HMGB1 protein released from keratinocytes subjected to stress from ultraviolet (“UV”) radiation. Human neonatal keratinocytes (available from Thermo) were placed in each well of four 12-well plates. Each well also contained 2 ml of EPILIFE brand keratinocyte medium. The plates were incubated at 37° C. in a CO2 incubator until cell confluency reached 70%. At this point, the cells, except for the negative control, were exposed to 15 mJ/cm^2 UVB (i.e., UV radiation with a wavelength of from 315-280 nm) in a BIO-SUN brand UV irradiating system (available from Vilber Lourmat, France). After UVB exposure, the keratinocyte medium in each well was replaced with an appropriate medium (i.e., niacinamide medium, nicotinamide riboside medium or a control medium) to produce the test plates. The test plates were incubated for 24 hours at 37° C. in a CO2 incubator, after which the medium in each cell was removed and the HMGB1 level measured using a conventional HMGB1 ELISA kit (REF # ST51011, available from IBL International, Canada) according to the manufacturer's instructions. The test media were made by adding either niacinamide or nicotinamide riboside to EPILIFE brand keratinocyte medium to produce a 0.001 w/v % solution. The control medium was unmodified keratinocyte medium.

Molecule | % Uptake [1] | Rate of Melanosome Uptake Versus Control [1] | HMGB1 Released [2] | effect on amount of HMGB1 protein released by keratinocytes exposed to UVB (in words) [2] | effect on uptake of melanosomes from melanocytes into keratinocytes (in words) ([1]; compared to the vehicle control)
Nicotinamide riboside [NR] | 67% | 186% | 11.5 pg/mL | reduces the amount of HMGB1 protein released from keratinocytes; also recorded: released less HMGB1 protein | 
NC(=O)c1cccnc1 [niacinamide, reference compound] | 26% | 72% | 17.8 pg/mL | no significant effect | inhibit the rate of melanosome uptake
